Measurements from patent US10308620B2, “Muscarinic M1 receptor positive allosteric modulators” (SUVEN LIFE SCIENCES LIMITED, priority 2015, dated 2019).

Key:
[1] = Rodent brain penetration study; assay type: in vivo; conditions: rat, oral, 3 mg/kg, p.o., male Wistar rats, read-out: Single dose Rat Brain Penetration (Cb/Cp)
Method: Rodent Brain Penetration Study
Male Wistar rats (260±40 grams) were used as experimental animals. Three animals were housed in each cage. Animals were given water and food ad libitum throughout the experiment and maintained on a 12 hours light/dark cycle.
Brain penetration was determined in discrete manner in rats. One day prior to dosing day, male Wistar rats were acclimatized and randomly grouped according to their weight. At each time point (0.50, 1 and 2 hours) n=3 animals were used.
The test compounds were suitably preformulated and administered orally at (free base equivalent) 3 mg/kg. Blood samples were removed via cardiac puncture by using isoflurane anesthesia. The animals were sacrificed to collect brain tissue. Plasma was separated and brain samples were homogenized and stored frozen at −20° C. until analysis. The concentrations of the test compounds in plasma and brain were determined using LC-MS/MS method.
The test compounds were quantified in plasma and brain homogenate by qualified LC-MS/MS method using suitable extraction technique. The test compounds were quantified in the calibration range of 1-500 ng/mL in plasma and brain homogenate. Study samples were analyzed using calibration samples in the batch and quality control samples spread across the batch. Extent of brain-plasma ratio was calculated (Cb/Cp).

Male Wistar rats = test: Object recognition task model (time induced memory deficit); assay type: in vivo, rat; conditions: p.o.; for Exploration time mean ± S.E.M, Familiar object / Exploration time mean ± S.E.M, Novel object: choice trial 24 hours after T1
Method: Object Recognition Task Model
The cognition enhancing properties of compounds of this invention were estimated by using this model.
Male Wistar rats (8-10 weeks old) were used as experimental animals. Four animals were housed in each cage. Animals were kept on 20% food deprivation from a day prior to experimentation. Water was provided ad libitum throughout the experiment. Animals were maintained on a 12 hours light/dark cycle in temperature and humidity controlled room. The experiment was carried out in an open field made up of acrylic. Rats were habituated to individual arenas (open field) for 1 hour in the absence of any objects on day 1.
One group of 12 rats received vehicle and another set of animals received test compounds or test compounds and Donepezil, before the familiar (T1) and choice (T2) trials. During the familiarization phase, (T1), the rats were placed individually in the arena for 3 minutes, in which two identical objects (a1 and a2) were positioned 10 cm from the wall. 24 hours after T1, trial for long-term memory test was performed. The same rats were placed in the same arena as they were placed in T1 trial. During the choice phase (T2) rats were allowed to explore the arena for 3 minutes in presence of a copy of familiar object (a3) and one novel object (b). During the T1 and T2 trial, explorations of each object (defined as sniffing, licking, chewing or having moving vibrissae whilst directing the nose towards the object at a distance of less than 1 cm) were recorded using stopwatch.
T1 is the total time spent exploring the familiar objects (a1+a2).
T2 is the total time spent exploring the familiar object and novel object (a3+b). Discriminative index=Time spent with novel object/(time spent with novel and familiar object).
The object recognition test was performed as described in Behavioural Brain Research, 1988, 31, 47-59.

[2] = target: recombinant human Muscarinic M1 receptor (Homo sapiens (Human), UniProt P11229); test: Allosteric potency EC50, CHO cells with pCRE-Luc reporter, in presence of EC20 of acetylcholine; assay type: cell-based; conditions: 4 hours
Method: Determination of Allosteric Potency EC50 Values for Muscarinic M1 Receptor:
A stable CHO cell line expressing recombinant human Muscarinic M1 receptor and pCRE-Luc reporter system was used for cell-based assay. The assay offers a non-radioactive based approach to determine binding of a compound to GPCRs. In this specific assay, the level of intracellular cyclic AMP which is modulated by activation or inhibition of the receptor is measured. The recombinant cells harbor luciferase reporter gene under the control of cAMP response element.
The above cells were grown in 96 well clear bottom white plates in Hams F12 medium containing 10% fetal bovine serum (FBS). Prior to the addition of compounds or standard agonist, cells were serum starved overnight. Increasing concentrations of test compounds were added along with EC20 of acetylcholine in OptiMEM medium to the cells. The incubation was continued at 37° C. in CO2 incubator for 4 hours. Medium was removed and cells were washed with phosphate buffered saline. The cells were lysed and luciferase activity was measured in a Luminometer. Luminescence units were plotted against the compound concentrations using Graphpad software. EC50 values of the compounds were defined as the concentration required in stimulating the luciferase activity by 50% in presence of EC20 of acetylcholine.

[3] = Rodent pharmacokinetic study; assay type: in vivo, rat; conditions: male Wistar rats; for clearance / half-life / Vd / Cmax / Tmax / bioavailability: rat, plasma; for Vd: read-out: Vz; for bioavailability: 3 mg/kg oral vs 1 mg/kg i.v.
Method: Rodent Pharmacokinetic Study
Male Wistar rats (260±50 grams) were used as experimental animals. Animals were housed individually in polypropylene cage. Two days prior to study, male Wistar rats were anesthetized with isoflurane for surgical placement of jugular vein catheter. Rats were randomly divided for oral (3 mg/kg) and intravenous (1 mg/kg) dosing (n=3/group) and fasted overnight before oral dosing (p.o.). However, rats allocated to intravenous (i.v.) dosing food and water was provided ad libitum.
At pre-determined point, blood was collected through jugular vein and replenished with an equivalent volume of normal saline. Collected blood was transferred into a labeled eppendorf tube containing 10 μL of heparin as an anticoagulant. Typically blood samples were collected at following time points: 0.08, 0.25, 0.5, 1, 2, 4, 6, 8, and 24 hours post dose. Blood was centrifuged at 4000 rpm for 10 minutes. Plasma was separated and stored frozen at −80° C. until analysis. The concentrations of the test compounds were quantified in plasma by qualified LC-MS/MS method using suitable extraction technique. The test compounds were quantified in the calibration range around 1-1000 ng/mL in plasma. Study samples were analyzed using calibration samples in the batch and quality control samples spread across the batch.
Pharmacokinetic parameters Cmax, Tmax, AUCt, T1/2, clearance, Vz and bioavailability were calculated by non-compartmental model using standard non-compartmental model by using Phoenix WinNonlin 6.0.2 or 6.0.3 version Software package.

Chain of recombinant human Muscarinic M1 receptor (P11229 whole entry): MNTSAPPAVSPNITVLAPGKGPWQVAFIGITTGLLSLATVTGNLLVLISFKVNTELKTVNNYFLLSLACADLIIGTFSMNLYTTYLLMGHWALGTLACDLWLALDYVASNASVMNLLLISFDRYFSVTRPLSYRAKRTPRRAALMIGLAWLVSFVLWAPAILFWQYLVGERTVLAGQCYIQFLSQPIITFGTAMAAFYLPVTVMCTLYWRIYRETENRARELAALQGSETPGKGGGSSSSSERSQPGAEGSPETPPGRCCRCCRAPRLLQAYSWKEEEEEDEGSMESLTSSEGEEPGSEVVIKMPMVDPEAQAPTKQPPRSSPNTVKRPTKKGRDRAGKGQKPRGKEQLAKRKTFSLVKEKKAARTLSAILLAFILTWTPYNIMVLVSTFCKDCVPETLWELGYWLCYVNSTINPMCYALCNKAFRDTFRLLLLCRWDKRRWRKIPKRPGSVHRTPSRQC

| Compound | Kp [1] | EC50 [2] | AUC0-t ([3]; 1 mg/kg i.v. (bolus)) | AUC0-t ([3]; 3 mg/kg oral (gavage)) | clearance ([3]; iv, 1 mg/kg i.v. (bolus)) | half-life ([3]; iv, 1 mg/kg i.v. (bolus)) | Vd ([3]; iv, 1 mg/kg i.v. (bolus)) | Cmax ([3]; 3 mg/kg oral (gavage)) | Tmax ([3]; 3 mg/kg oral (gavage)) | half-life ([3]; 3 mg/kg oral (gavage)) | bioavailability [3] | Inference (Male Wistar rats; 10 mg/kg) | Exploration time mean ± S.E.M, Familiar object (Male Wistar rats; 10 mg/kg) | Exploration time mean ± S.E.M, Novel object (Male Wistar rats; 10 mg/kg) | Inference (Male Wistar rats; 3 mg/kg) | Exploration time mean ± S.E.M, Familiar object (Male Wistar rats; 3 mg/kg) | Exploration time mean ± S.E.M, Novel object (Male Wistar rats; 3 mg/kg) |
| --- | --- | --- | --- | --- | --- | --- | --- | --- | --- | --- | --- | --- | --- | --- | --- | --- | --- |
| COc1ccc(CN2C=C(C(=O)N[C@H]3CCCC[C@@H]3O)Oc3ccccc32)cc1 [Example 5, N-(cis-1S, 2S-2-Hydroxycyclohexyl)-4-(4-methoxybenzyl)-4H-benzo[1,4]oxazine-2-carboxamide] | 0.9 ± 0.15 | 135 nM | 1150 ± 62 ng·h/mL | 3980 ± 533 ng·h/mL | 14 ± 1 mL/min/kg | 270 ± 12 min | 5.6 ± 0.5 L/kg | 430 ± 35 ng/mL | 2.83 ± 2.02 h | 234 ± 6 min | 115 ± 15% |  |  |  |  |  |  |
| O=C(N[C@H]1CCCC[C@@H]1O)C1=CN(Cc2cccc(F)c2)c2ccccc2O1 [Example 7, N-(cis-1S, 2S-2-Hydroxycyclohexyl)-4-(3-fluorobenzyl)-4H-benzo[1,4]oxazine-2-carboxamide] | 1.04 ± 0.16 | 891 nM | 553 ± 42 ng·h/mL | 652 ± 227 ng·h/mL | 29 ± 2 mL/min/kg | 102 ± 18 min | 4.3 ± 0.9 L/kg | 313 ± 111 ng/mL | 0.5 h | 108 ± 18 min | 39 ± 14% |  |  |  | Active | 9.23 ± 1.53 s | 13.92 ± 1.99 s |
| O=C(N[C@H]1CCCC[C@@H]1O)C1=CN(Cc2cccc(C(F)(F)F)c2)c2ccccc2O1 [Example 17, N-(cis-1S, 2S-2-Hydroxycyclohexyl)-4-(3-trifluoromethylbenzyl)-4H-benzo[1,4]oxazine-2-carboxamide] | 1.92 ± 0.24 | 149 nM | 600 ± 74 ng·h/mL | 467 ± 169 ng·h/mL | 27 ± 3 mL/min/kg | 552 ± 132 min | 22 ± 8 L/kg | 91 ± 38 ng/mL | 4 h | 156 ± 12 min | 26 ± 9% |  |  |  |  |  |  |
| O=C(N[C@H]1CCCC[C@@H]1O)C1=CN(Cc2ccc(F)c(F)c2)c2ccccc2O1 [Example 19, N-(cis-1S,2S-2-Hydroxycyclohexyl)-4-(3,4-difluorobenzyl)-4H-benzo[1,4]oxazine-2-carboxamide] |  | 120 nM | 1240 ± 84 ng·h/mL | 2490 ± 223 ng·h/mL | 13 ± 1 mL/min/kg | 228 ± 30 min | 4.4 ± 0.2 L/kg | 252 ± 17 ng/mL | 1.67 ± 0.6 h | 222 ± 6 min | 67 ± 6% |  |  |  |  |  |  |
| O=C(NC1CCOCC1O)C1=CN(Cc2cccc(F)c2F)c2ccccc2O1 (stereo not shown) [Example 20, N-(3-Hydroxytetrahydrpyran-4-yl)-4-(2,3-difluorobenzyl)-4H-benzo[1,4]oxazine-2-carboxamide] | 0.82 ± 0.25 | 1250 nM |  |  |  |  |  |  |  |  |  | Active | 12.17 ± 1.84 s | 19.94 ± 3.02 s |  |  |  |
| O=C(N[C@H]1CCCC[C@@H]1O)C1=CN(Cc2cccc(F)c2F)c2ncccc2O1 [Example 33, N-(cis-1S,2S-2-Hydroxycyclohexyl)-4-(2,3-difluorobenzyl)-4H-pyrido[3,2-b][1,4]oxazine-2-carboxamide] | 1.96 ± 0.91 | 1180 nM | 452 ± 135 ng·h/mL | 719 ± 269 ng·h/mL | 39 ± 10 mL/min/kg | 72 ± 36 min | 3.5 ± 1 L/kg | 159 ± 26 ng/mL | 1.5 ± 0.9 h | 192 ± 120 min | 53 ± 20% |  |  |  |  |  |  |
| O=C(N[C@H]1CCCC[C@@H]1O)C1=CN(Cc2cccc(F)c2)c2cccc(F)c2O1 [Example 51, N-(cis-1S,2S-2-Hydroxycyclohexyl)-4-{3-fluorobenzyl}-8-fluoro-4H-benzo[1,4]oxazine-2-carboxamide] | 1.93 ± 0.37 | 420 nM | 533 ± 62 ng·h/mL | 371 ± 149 ng·h/mL | 31 ± 4 mL/min/kg | 216 ± 180 min | 9.8 ± 8 L/kg | 132 ± 32 ng/mL | 1 h | 138 ± 30 min | 23 ± 9% |  |  |  |  |  |  |
| O=C(N[C@H]1CCCC[C@@H]1O)C1=CN(Cc2cccc(F)c2)c2ccccc2[S+]1[O-] (stereo partly drawn) [Example 95, N-(cis-1S,2S-2-Hydroxycyclohexyl)-4-{3-fluorobenzyl}-1-oxo-4H-benzo[1,4]thiazine-2-carboxamide] |  | 1520 nM |  |  |  |  |  |  |  |  |  |  |  |  |  |  |  |

Further lines, with some results ahead:

| Kp [1] | EC50 [2] | AUC0-t ([3]; 1 mg/kg i.v. (bolus)) | AUC0-t ([3]; 3 mg/kg oral (gavage)) | clearance ([3]; iv, 1 mg/kg i.v. (bolus)) | half-life ([3]; iv, 1 mg/kg i.v. (bolus)) | Vd ([3]; iv, 1 mg/kg i.v. (bolus)) | Cmax ([3]; 3 mg/kg oral (gavage)) | Tmax ([3]; 3 mg/kg oral (gavage)) | half-life ([3]; 3 mg/kg oral (gavage)) | bioavailability [3] | Compound | Inference (Male Wistar rats; 10 mg/kg) | Exploration time mean ± S.E.M, Familiar object (Male Wistar rats; 10 mg/kg) | Exploration time mean ± S.E.M, Novel object (Male Wistar rats; 10 mg/kg) | Inference (Male Wistar rats; 3 mg/kg) | Exploration time mean ± S.E.M, Familiar object (Male Wistar rats; 3 mg/kg) | Exploration time mean ± S.E.M, Novel object (Male Wistar rats; 3 mg/kg) |
| --- | --- | --- | --- | --- | --- | --- | --- | --- | --- | --- | --- | --- | --- | --- | --- | --- | --- |
| 1.43 ± 0.01 | 1430 nM | 415 ± 17 ng·h/mL | 607 ± 62 ng·h/mL | 40 ± 2 mL/min/kg | 84 ± 6 min | 4.7 ± 0.1 L/kg | 245 ± 27 ng/mL | 0.58 ± 0.38 h | 90 ± 18 min | 49 ± 5% | O=C(N[C@H]1CCCC[C@@H]1O)C1=CN(Cc2ccccc2)c2ccccc2O1 [Example 4, N-(cis-1S,2S-2-Hydroxycyclohexyl)-4-benzyl-4H-benzo[1,4]oxazine-2-carboxamide] | Active | 7.43 ± 0.67 s | 11.21 ± 1.26 s |  |  |  |
|  | 1470 nM | 262 ± 50 ng·h/mL | 255 ± 32 ng·h/mL | 64 ± 11 mL/min/kg | 48 ± 12 min | 4.2 ± 0.7 L/kg | 195 ± 22 ng/mL | 0.33 ± 0.14 h | 102 ± 60 min | 32 ± 4% | O=C(N[C@H]1CCCC[C@@H]1O)C1=CN(Cc2ccccn2)c2ccccc2S1 [Example 92, N-(cis-1S,2S-2-Hydroxycyclohexyl)-4-{pyridin-2-ylmethyl}-4H-benzo[1,4]thiazine-2-carboxamide] |  |  |  |  |  |  |
|  | 2160 nM |  |  |  |  |  |  |  |  |  | O=C(N[C@H]1CCCC[C@@H]1O)C1=CN(Cc2ccccn2)c2ccccc2[S+]1[O-] (stereo partly drawn) [Example 96, N-(cis-1 S, 2S-2-Hydroxycyclohexyl)-4-{pyridin-2-ylmethyl}-1-oxo-4H-benzo[1,4]thiazine-2-carboxamide] |  |  |  |  |  |  |
|  | 1060 nM |  |  |  |  |  |  |  |  |  | O=C(N[C@H]1CCCC[C@@H]1O)C1=CN(Cc2ccc(Cl)nc2)c2ccccc2[S+]1[O-] (stereo partly drawn) [Example 97, N-(cis-1S, 2S-2-Hydroxycyclohexyl)-4-{2-chloropyridin-5-ylmethyl}-1-oxo-4H-benzo[1,4]thiazine-2-carboxamide] |  |  |  |  |  |  |
